Data from article PMC2376372, “3-Bromophenyl 6-acetoxymethyl-2-oxo-2H-1-benzopyran-3-carboxylate inhibits cancer cell invasion in vitro and tumour growth in vivo” (British Journal of Cancer, 2003).

Assays:
[1] = molecular target: T1, Plasmin (Homo sapiens, UniProt P00747); assay: Inactivation of plasmin (preincubation method); type: biochemical; details: pH 7.5, 25°C; preincubation method; NI=no inhibition
T1 construct: No; X′; α-CT; HLE; LMW-uPA; Plasmin; purchased Biogenic
Procedure: (§1) Bovine α-CT and LMW-uPA (MW=33 000 Da) were purchased from Sigma, HMW-uPA (MW=54 000 Da) from Choay, trypsin (TRY) and THR from Boehringer-Indelheim (Germany), and MMP-2 and MMP-9 from Calbiochem. Human leucocyte elastase and PM were from Elastase Products Co. and Biogenic, respectively. Except for THR, HMW-uPA, MMP-2 and MMP-9, enzyme concentrations were determined by active-site titrations using the appropriate titrant ([Bender et al, 1966]; [Chase and Shaw, 1970]; [Powers and Gupton, 1977]). […]
(§2) The kinetic parameters for the inhibition were determined either by the preincubation method for LMW-uPA and PM (small aliquots of the reaction mixture were withdrawn at intervals of time and the remaining activity determined), or by the progress curve method (HLE) when the inhibition was too fast to be measured accurately using the preincubation method. […]
(§3) At low inhibitor concentrations, the ratio ki/KI was obtained as kobs/[I]0. […] In the progress curve method, the substrate competes with the inhibitor and the kinetic parameters are determined as previously described ([Doucet et al, 1999]). […]

[2] = molecular target: α-CT; details: pH 7.5, 25°C; ref Pochet et al (2000); cited from earlier work
[3] = molecular target: T2, HLE (Homo sapiens, UniProt P08246); details: pH 8.0, 25°C; ref Pochet et al (2000); cited from earlier work
T2 construct: purchased Elastase Products Co
T2 sequence (P08246 30-267): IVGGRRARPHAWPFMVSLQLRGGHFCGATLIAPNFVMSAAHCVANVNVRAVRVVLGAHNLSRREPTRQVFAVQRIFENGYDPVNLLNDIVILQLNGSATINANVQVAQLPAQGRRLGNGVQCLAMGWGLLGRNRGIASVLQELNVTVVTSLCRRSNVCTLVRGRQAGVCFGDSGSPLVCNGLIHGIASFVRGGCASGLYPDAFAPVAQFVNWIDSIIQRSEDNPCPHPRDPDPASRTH

[4] = tested on: MDA-MB231 cells; assay: Tumorigenicity of MDA-MB231 cells injected s.c. with matrigel in nude mice; type: in vivo; details: 30 mg kg^−1 i.p. three times per week
Procedure: Matrigel (basement membrane proteins) was extracted from the mouse Engelbreth–Holm–Swarm (EHS) tumour as previously described ([Noël et al, 1991]). Tumoral cells were detached by trypsinisation, harvested by centrifugation, resuspended in 0.25 ml of serum-free medium and mixed with an equal volume of cold matrigel (10 mg ml^−1). The suspension (1 × 10^6 cells injection site^−1) was injected subcutaneously (s.c.) on both body flanks of 6–8-week-old female athymic nude mice (n=6; nu/nu Swiss mice from Iffa credo, L'Arbresle, France). The coumarin derivatives in PBS were injected intraperitoneally (30 mg kg^−1) three times per week during the whole assay.
The tumorigenicity defines the capacity of cells to induce tumour formation. The larger (a) and smaller (b) diameters of the apparent tumour were measured and served for tumour volume calculation according to a × b^2 × 0.4 ([Attia and Weiss, 1966]). Injected mice were examined weekly. Tumours presenting a volume higher than 80 mm^3 and which maintained a progressive growth were taken into account ([Noël et al, 1992]). Results are expressed as the mean (±s.e.m.) of the tumour volumes.

[5] = molecular target: T2, HLE; assay: Inactivation of human leucocyte elastase (progress curve method); type: biochemical; details: pH 8.0, 25°C, read-out: ki/KI or kobs/[I], HLE
Procedure: as §1, §2, §3

T1 sequence (P00747 581-810 limits assumed, species assumed): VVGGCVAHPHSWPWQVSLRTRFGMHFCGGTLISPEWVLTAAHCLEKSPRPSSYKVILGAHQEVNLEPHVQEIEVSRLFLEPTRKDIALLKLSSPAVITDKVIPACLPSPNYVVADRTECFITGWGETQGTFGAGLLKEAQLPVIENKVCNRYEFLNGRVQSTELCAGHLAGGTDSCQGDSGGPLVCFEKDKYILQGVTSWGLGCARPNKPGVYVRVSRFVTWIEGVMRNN
T1 sequence (P00747 97-580 partner limits assumed, species assumed): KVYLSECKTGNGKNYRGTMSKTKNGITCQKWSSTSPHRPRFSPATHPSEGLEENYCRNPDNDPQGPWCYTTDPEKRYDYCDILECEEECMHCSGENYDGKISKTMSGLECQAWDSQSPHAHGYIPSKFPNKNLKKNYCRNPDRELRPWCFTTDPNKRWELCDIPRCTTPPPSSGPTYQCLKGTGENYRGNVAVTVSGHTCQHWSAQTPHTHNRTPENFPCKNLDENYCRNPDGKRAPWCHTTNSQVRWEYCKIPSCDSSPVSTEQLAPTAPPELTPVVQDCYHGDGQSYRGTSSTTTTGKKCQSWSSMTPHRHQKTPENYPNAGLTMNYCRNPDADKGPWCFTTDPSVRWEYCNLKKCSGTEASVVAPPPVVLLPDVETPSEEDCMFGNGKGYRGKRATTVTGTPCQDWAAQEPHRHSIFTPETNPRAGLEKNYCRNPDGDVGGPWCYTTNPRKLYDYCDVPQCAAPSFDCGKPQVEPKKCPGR

Compound	ki/KI or kobs/[I], Plasmin [1]	ki/KI or kobs/[I], α-CT [2]	ki/KI or kobs/[I], HLE [3]	effect on tumour incidence, MDA-MB231 [4]	effect on tumour growth, MDA-MB231 ([4]; ANOVA, P<0.05)	kinact/KI [5]	melting point
CC(=O)OCc1ccc2oc(=O)c(C(=O)Oc3cccc(Cl)c3)cc2c1 [compound 4, 3-chlorophenyl 6-acetoxymethyl-2-oxo-2H-1-benzopyran-3-carboxylate]	not affected	20000^a M^−1 s^−1	1440^a M^−1 s^−1				
CC(=O)OCc1ccc2oc(=O)c(C(=O)Oc3cccc(Br)c3)cc2c1 [compound 7, 3-bromophenyl 6-acetoxy-methyl-2-oxo-2H-1-benzopyran-3-carboxylate]				did not affect tumour incidence	reduced significantly tumour growth	2190 M⁻¹ s⁻¹	141 to 142 °C
